Experimental data as given in the CheMixHub viscosity set.

Experiment: xn = mol fraction of the nth substance listed

C=C(C)C(=O)OCC + CC#N
viscosity [mPa·s], 101 kPa
Details | 298.15 K | 303.15 K | 308.15 K | 313.15 K | 318.15 K
x2 = 0.0556 | 0.6285 | 0.5725 | 0.5246 | 0.4857 | 0.4542
x2 = 0.1112 | 0.6154 | 0.562 | 0.5162 | 0.479 | 0.4489
x2 = 0.1631 | 0.6027 | 0.5516 | 0.5079 | 0.4722 | 0.4433
x2 = 0.2147 | 0.5894 | 0.5408 | 0.499 | 0.4649 | 0.4372
x2 = 0.2795 | 0.5723 | 0.5266 | 0.4872 | 0.455 | 0.4287
x2 = 0.3446 | 0.5545 | 0.5115 | 0.4746 | 0.4443 | 0.4194
x2 = 0.4132 | 0.5349 | 0.495 | 0.4606 | 0.4322 | 0.4088
x2 = 0.4819 | 0.5147 | 0.4777 | 0.4458 | 0.4194 | 0.3974
x2 = 0.5597 | 0.4911 | 0.4574 | 0.4283 | 0.404 | 0.3836
x2 = 0.6375 | 0.4667 | 0.4364 | 0.41 | 0.3878 | 0.3689
x2 = 0.7251 | 0.4385 | 0.4119 | 0.3885 | 0.3686 | 0.3515
x2 = 0.8113 | 0.4101 | 0.387 | 0.3666 | 0.349 | 0.3334
x2 = 0.9014 | 0.3798 | 0.3604 | 0.343 | 0.3277 | 0.3137
x2 = 0.9542 | 0.3618 | 0.3445 | 0.3289 | 0.3148 | 0.3018

CCOC(=O)c1ccccc1 + CC(=O)CC(C)C
viscosity [mPa·s], 101.33 kPa
Details | 293.15 K | 303.15 K
x2 = 0.0752 | 1.89 | 1.55
x2 = 0.1491 | 1.675 | 1.376
x2 = 0.2022 | 1.58 | 1.303
x2 = 0.3364 | 1.375 | 1.15
x2 = 0.4004 | 1.277 | 1.079
x2 = 0.5355 | 1.109 | 0.94
x2 = 0.6213 | 0.988 | 0.85
x2 = 0.7165 | 0.88 | 0.757
x2 = 0.7942 | 0.797 | 0.69
x2 = 0.8805 | 0.719 | 0.625
x2 = 0.9154 | 0.686 | 0.599
x2 = 0.9549 | 0.648 | 0.569

CNS(C)(=O)=O + CC(=O)N(C)C
303.15 K, 101.33 kPa
Details | viscosity [mPa·s]
x1 = 0.1009 | 1.104
x1 = 0.2022 | 1.473
x1 = 0.2303 | 1.578
x1 = 0.4082 | 2.571
x1 = 0.4802 | 3.127
x1 = 0.6009 | 4.202
x1 = 0.7019 | 5.204
x1 = 0.7958 | 6.184
x1 = 0.8966 | 7.185

CCOC(=O)c1ccccc1 + CC(=O)O
298.15 K, 101 kPa
Details | viscosity [mPa·s]
x2 = 0.1041 | 1.948
x2 = 0.2129 | 1.874
x2 = 0.3045 | 1.797
x2 = 0.3882 | 1.727
x2 = 0.475 | 1.651
x2 = 0.5822 | 1.538
x2 = 0.6826 | 1.446
x2 = 0.7956 | 1.322
x2 = 0.9132 | 1.202

CCCCCl + CC(C)(C)O
viscosity [mPa·s], 101 kPa
Details | x1 = 0.1052 | x1 = 0.2087 | x1 = 0.315 | x1 = 0.4159 | x1 = 0.5172 | x1 = 0.6059 | x1 = 0.7101 | x1 = 0.8039 | x1 = 0.8976
298.15 K | 2.188 | 1.359 | 0.991 | 0.7867 | 0.6596 | 0.582 | – | 0.4746 | 0.4434
313.15 K | 1.279 | 0.9194 | 0.7181 | 0.5981 | 0.5189 | – | 0.4243 | 0.3963 | 0.377

CC1CCCCC1 + CC(C)CC(C)(C)C
viscosity [mPa·s], 101 kPa
Details | 298.15 K | 303.15 K | 308.15 K
x1 = 0.1032 | – | 0.462 | –
x1 = 0.105 | – | 0.466 | 0.438
x1 = 0.201 | – | 0.478 | –
x1 = 0.221 | – | 0.4798 | –
x1 = 0.3024 | 0.522 | 0.492 | 0.462
x1 = 0.399 | – | 0.5062 | –
x1 = 0.4039 | 0.539 | 0.508 | 0.476
x1 = 0.4974 | – | 0.524 | –
x1 = 0.4998 | 0.556 | 0.523 | 0.491
x1 = 0.5998 | – | 0.5431 | –
x1 = 0.6064 | 0.577 | 0.543 | 0.509
x1 = 0.6991 | 0.597 | 0.562 | 0.526
x1 = 0.7018 | – | 0.5656 | –
x1 = 0.8004 | 0.62 | 0.583 | 0.546
x1 = 0.8012 | – | 0.5892 | –
x1 = 0.8991 | – | 0.6154 | –
x1 = 0.9007 | 0.648 | 0.608 | 0.568

CCOC(=O)[C@@H](O)[C@H](O)C(=O)OCC + CC(C)CCO
viscosity [mPa·s], 101 kPa
Details | x1 = 0.1 | x1 = 0.2 | x1 = 0.3 | x1 = 0.4001 | x1 = 0.5 | x1 = 0.6001 | x1 = 0.6999 | x1 = 0.7997 | x1 = 0.8998
293.15 K | 5.227 | 7.032 | 9.91 | 13.58 | 20.31 | 31.03 | 46.13 | 74.54 | 129.6
298.15 K | 4.438 | 5.859 | 8.123 | 10.83 | 15.81 | 23.2 | 33.35 | 51.5 | 84.95
303.15 K | 3.768 | 4.88 | 6.638 | 8.752 | 12.37 | 17.66 | 24.71 | 36.84 | 58.14
308.15 K | 3.225 | 4.138 | 5.497 | 7.134 | 9.862 | 13.75 | 18.79 | 27.17 | 41.31
313.15 K | 2.774 | 3.487 | 4.567 | 5.855 | 7.945 | 10.86 | 14.56 | 20.53 | 30.25
318.15 K | 2.416 | 3.02 | 3.904 | 4.935 | 6.58 | 8.824 | 11.61 | 15.99 | 22.88
323.15 K | 2.13 | 2.649 | 3.374 | 4.215 | 5.529 | 7.295 | 9.449 | 12.74 | 17.8

CCCCCl + CC(C)CO
viscosity [mPa·s], 101 kPa
Details | x1 = 0.0951 | x1 = 0.2057 | x1 = 0.3038 | x1 = 0.4102 | x1 = 0.5035 | x1 = 0.6121 | x1 = 0.7033 | x1 = 0.8022 | x1 = 0.9043
298.15 K | 2.41 | 1.677 | 1.261 | 0.9677 | 0.7931 | 0.6506 | – | 0.5 | 0.4513
313.15 K | 1.576 | 1.152 | 0.9054 | 0.7239 | 0.6137 | 0.5199 | 0.4687 | 0.4153 | 0.3832

CCOC(=O)[C@@H](O)[C@H](O)C(=O)OCC + CC(C)CO
viscosity [mPa·s], 101 kPa
Details | x1 = 0.1 | x1 = 0.2 | x1 = 0.3001 | x1 = 0.3999 | x1 = 0.5 | x1 = 0.6001 | x1 = 0.6989 | x1 = 0.7998 | x1 = 0.8994
293.15 K | 5.103 | 7.263 | 10.49 | 15.86 | 24.25 | 34.35 | 50.55 | 88.25 | 140.9
298.15 K | 4.28 | 5.98 | 8.485 | 12.38 | 18.34 | 25.34 | 36.11 | 59.79 | 91.12
303.15 K | 3.601 | 4.928 | 6.848 | 9.831 | 14.09 | 19.07 | 26.5 | 42.09 | 62.16
308.15 K | 3.052 | 4.111 | 5.611 | 7.889 | 11.06 | 14.71 | 19.99 | 30.63 | 43.93
313.15 K | 2.607 | 3.444 | 4.609 | 6.39 | 8.797 | 11.53 | 15.38 | 22.88 | 31.96
318.15 K | 2.249 | 2.956 | 3.912 | 5.322 | 7.201 | 9.298 | 12.19 | 17.64 | 24.09
323.15 K | 1.973 | 2.567 | 3.358 | 4.497 | 5.991 | 7.637 | 9.865 | 13.94 | 18.67
